From patent US9815841B2, “Compounds” (GLAXOSMITHKLINE INTELLECTUAL PROPERTY DEVELOPMENT LIMITED, priority 2014, dated 2017)

What follows are compounds tested against T1, purified recombinant 6HIS-Tev-LRRK2 (1326-2527) (Homo sapiens, UniProt Q5S007) (assay: Recombinant LRRK2 enzyme peptide substrate TR-FRET assay). Conditions: 60 nM LRRK2 (1326-2527), 1 uM Biotin-longer LRRKtide, 10 uM ATP; read-out: recombinant LRRK2 enzyme peptide substrate TR-FRET assay (pIC50) (converted).
T1 construct: A LRRK2 cDNA encoding residues 1326-2527 was received from Dundee University; made in house; host or cells: Spodoptera frugiperda (Sf9) insect cells, baculovirus (pFB-HTb)
T1 sequence (Q5S007 1326-2527): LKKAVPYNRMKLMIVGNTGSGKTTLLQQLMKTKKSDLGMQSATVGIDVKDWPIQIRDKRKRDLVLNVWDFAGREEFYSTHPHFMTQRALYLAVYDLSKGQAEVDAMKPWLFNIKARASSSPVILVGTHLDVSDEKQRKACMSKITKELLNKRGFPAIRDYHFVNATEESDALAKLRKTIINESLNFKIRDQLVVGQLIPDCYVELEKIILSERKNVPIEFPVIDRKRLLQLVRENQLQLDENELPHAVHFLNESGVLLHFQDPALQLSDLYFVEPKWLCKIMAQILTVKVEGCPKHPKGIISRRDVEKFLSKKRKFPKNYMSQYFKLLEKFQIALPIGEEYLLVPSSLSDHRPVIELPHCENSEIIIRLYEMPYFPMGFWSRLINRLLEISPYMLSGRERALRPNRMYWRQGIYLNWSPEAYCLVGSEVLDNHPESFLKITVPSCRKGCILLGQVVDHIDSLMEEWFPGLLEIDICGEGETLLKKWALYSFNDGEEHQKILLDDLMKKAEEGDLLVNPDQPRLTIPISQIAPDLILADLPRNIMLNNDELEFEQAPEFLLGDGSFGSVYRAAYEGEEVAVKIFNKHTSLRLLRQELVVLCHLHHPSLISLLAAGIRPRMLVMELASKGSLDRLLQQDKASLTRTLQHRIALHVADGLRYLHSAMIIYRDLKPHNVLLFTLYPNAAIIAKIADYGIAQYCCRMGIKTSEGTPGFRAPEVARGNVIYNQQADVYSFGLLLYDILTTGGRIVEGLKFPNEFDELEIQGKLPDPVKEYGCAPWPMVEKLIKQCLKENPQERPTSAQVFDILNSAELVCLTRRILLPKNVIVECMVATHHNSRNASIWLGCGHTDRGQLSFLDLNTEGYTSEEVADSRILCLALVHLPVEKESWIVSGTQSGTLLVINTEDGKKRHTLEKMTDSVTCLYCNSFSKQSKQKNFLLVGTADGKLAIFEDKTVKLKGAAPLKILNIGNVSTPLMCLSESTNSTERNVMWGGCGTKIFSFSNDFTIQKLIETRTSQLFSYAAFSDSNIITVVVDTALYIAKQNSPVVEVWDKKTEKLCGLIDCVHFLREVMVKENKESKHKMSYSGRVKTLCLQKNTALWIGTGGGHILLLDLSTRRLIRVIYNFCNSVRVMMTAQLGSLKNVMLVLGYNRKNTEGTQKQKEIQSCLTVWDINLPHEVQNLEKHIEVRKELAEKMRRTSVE
Type: biochemical
Description: This gene fragment was subcloned into pFB-HTb (Invitrogen) using BamHI and NotI restriction sites. The LRRK2 plasmid was recombined into the baculovirus genome according to the BAC-to-BAC protocol described by Invitrogen. Transfection into Spodoptera frugiperda (Sf9) insect cells was performed using Cellfectin (Invitrogen), according to the manufacturer's protocol to generate P1 and P2 baculovirus stocks.
Sf9 cells were grown in HyClone SFX (Thermo Scientific) growth media at 27° C., 80 rpm in shake flask until of a sufficient volume to inoculate a bioreactor. […] The cells were infected with P2 Baculovirus at a multiplicity of infection (MOI) of 3. The cultivation was continued for a 48 hour expression phase. The infected cells were removed from the growth media by centrifugation at 2500 g using a Sorvall RC 3C Plus centrifuge at 2500 g for 20 minutes. The cell pellet was immediately frozen and subsequently supplied for purification.
A 260 g pellet was allowed to thaw in a water bath at 27° C. with 800 ml lysis buffer/buffer A (50 mm Tris-HCl pH 8.5, 300 mM NaCl, 1 mm DTT, 10% glycerol, 1 ml/L calbiochem complete protease inhibitor cocktail and benzonase (50 ul/800 ml)) before being dounce homogenised on ice using 20 strokes per 100 ml. The suspension was packed in ice and sonicated at 50% amplitude for 3 min 10 sec on/off using a ¾″ probe. The suspension was then centrifuged at 100,000 g for 90 min, at 4° C.
The lysate (700 ml) was decanted from the insoluble pellet and contacted for 3 h at 4 C with 10 ml His bind Ni NTA resin by end over end mixing. The resin was recovered by centrifugation, 3000 g, 5 min at 4 C, and packed in an XK16 column. The column was then washed with 10 column volumes buffer A, 10 column volumes buffer B (buffer A+1M NaCl) and 10 column volumes buffer C (buffer A+20 mM imidazole). The column was then eluted with 15 column volumes buffer D (buffer A+300 mM imidazole) collecting 2 ml fractions. All washes and elution were conducted at 4 ml/min.
Fractions identified by SDS-PAGE as containing protein of interest were pooled and loaded directly onto a 320 ml SEC Superdex 200 pg column that was pre-equilibrated with buffer E (50 mM Tris-HCl pH 8.5, 300 mM NaCl, 10% glycerol, 1 mM DTT). The column was loaded and eluted with 1.2 column volumes buffer E at 2 ml/min collecting 2 ml fractions. Fractions identified by SDS-PAGE as containing protein of interest were tested for activity.
Production of Biotin-Longer LRRKtide
The resulting crude peptide was cleaved from the resin using a 95:2.5:2.5 mix of trifluoroacetic acid:triisopropylsilane:water.
Recombinant LRRK2 Enzyme Peptide Substrate TR-FRET Assay
Assay Protocol • 1. A 10 mM test compound was dissolved in 100% DMSO and serially diluted 1 in 4. 100 nL was then added to a 384 well low volume black plate, excluding columns 6 and 18. 100 nL of DMSO was added to columns 6 and 18 as controls wells. […] Test plates were then incubated for 30 minutes at room temperature. • 3. 3 uL ‘substate solution’ containing 2 uM Biotin-longer LRRKtide peptide substrate and 20 uM ATP was added to all wells of the plate using a multidrop combi dispenser giving a final assay concentration of 1 uM Biotin-longer LRRKtide and 10 uM ATP. Test plates were then incubated for 2 hours at room temperature. (Incubation may vary depending on rate and linearity of reaction with different enzyme batches). • 4. […] Data is analysed using ActivityBase software (IDBS). Dilutions and concentrations of reagents determined on a batch to batch basis

SMILES | IC50 [µM]
CCOc1nc(Nc2ccc(C(=O)N3CCOCC3)cc2OC)nc2[nH]ccc12 [Example E1, (4-((4-ethoxy-7H-pyrrolo-[2,3-d]-pyrimidin-2-yl)amino)-3-methoxyphenyl)(morpholino)methanone] | 0.0126
CCOc1nc(Nc2cc(F)c(C(=O)N3CCOCC3)cc2OC)nc2[nH]ccc12 [Example E2, (4-((4-ethoxy-7H-pyrrolo-[2,3-d]-pyrimidin-2-yl)amino)-2-fluoro-5-methoxyphenyl)(morpholino)methanone] | 0.00794
CCOc1nc(Nc2ccc(C(=O)N3CCN(C)CC3)cc2OC)nc2[nH]ccc12 [Example E3, (4-((4-ethoxy-7H-pyrrolo-[2,3-d]-pyrimidin-2-yl)amino)-3-methoxyphenyl)(4-methylpiperazin-1-yl)-methanone] | 0.00794
CCOc1nc(Nc2ccc(C(=O)N3CCC(N4CCN(C)CC4)CC3)cc2OC)nc2[nH]ccc12 [Example E4, (4-((4-ethoxy-7H-pyrrolo-[2,3-d]pyrimidin-2-yl)amino)-3-methoxyphenyl)(4-(4-methylpiperazin-1-yl)-piperidin-1-yl)-methanone] | ≤ 0.01
CCOc1nc(Nc2ccc(C(=O)N3CCOCC3)cc2)nc2[nH]ccc12 [Example E9, (4-((4-ethoxy-7H-pyrrolo-[2,3-d]pyrimidin-2-yl)amino)phenyl)(morpholino)methanone] | ≤ 0.01
CCOc1nc(Nc2ccc(C(=O)N3CCC4(CC3)CN(C)C4)cc2OC)nc2[nH]ccc12 [Example E13, (4-((4-ethoxy-7H-pyrrolo-[2,3-d]-pyrimidin-2-yl)amino)-3-methoxyphenyl)(2-methyl-2,7-diazaspiro-[3.5]-nonan-7-yl)methanone] | ≤ 0.01
CCOc1nc(Nc2ccc(C(=O)N3CCC4(CC3)CC4)cc2OC)nc2[nH]ccc12 [Example E16, (4-((4-ethoxy-7H-pyrrolo-[2,3-d]-pyrimidin-2-yl)amino)-3-methoxyphenyl)(6-azaspiro-[2.5]octan-6-yl)methanone] | 0.0158
CCOc1cc(C(=O)N2CCOCC2)ccc1Nc1nc(OCC)c2cc[nH]c2n1 [Example E20, (3-ethoxy-4-((4-ethoxy-7H-pyrrolo-[2,3-d]pyrimidin-2-yl)amino)phenyl)(morpholino)methanone] | 0.01
CCOc1nc(Nc2ccc(C(=O)N3CCN(C)CC3)cc2OC(C)C)nc2[nH]ccc12 [Example E24, (4-((4-ethoxy-7H-pyrrolo-[2,3-d]pyrimidin-2-yl)amino)-3-isopropoxyphenyl)(4-methylpiperazin-1-yl)methanone] | 0.01
CCOc1nc(Nc2ccc(C(=O)N3CCOC[C@@H]3C)cc2OC)nc2[nH]ccc12 [Example E27, (S)-(4-((4-ethoxy-7H-pyrrolo-[2,3-d]pyrimidin-2-yl)amino)-3-methoxyphenyl)(3-methylmorpholino)methanone] | ≤ 0.01
CCOc1nc(Nc2ccc(C(=O)N3CCN(C)CC3)cc2OC)nc2[nH]cc(C)c12 [Example E31, (4-((4-ethoxy-5-methyl-7H-pyrrolo-[2,3-d]pyrimidin-2-yl)amino)-3-methoxyphenyl)(4-methylpiperazin-1-yl)methanone] | ≤ 0.01
CCOc1nc(Nc2ccc(C(=O)N3CCN(C)C[C@H]3C)cc2OC)nc2[nH]ccc12 [Example E40, (R)-(2,4-dimethylpiperazin-1-yl)(4-((4-ethoxy-7H-pyrrolo-[2,3-d]-pyrimidin-2-yl)-amino)-3-methoxyphenyl)methanone] | 0.01
